Data published in paper PMC6199744, “Development of Chemical Proteomics for the Folateome and Analysis of the Kinetoplastid Folateome” (ACS Infectious Diseases, 2018).
Read-outs that look alike come from different tables or passages of the source.

What was measured:
Type in all cases: binding
[1] = biological target: T1, HeLa cell extract proteins (Homo sapiens, UniProt O15397)
T1 construct: endogenous in cells; host or cells: HeLa cell extract

[2] = biological target: T2, HeLa cell extract proteins (Homo sapiens, UniProt O43865)
T2 construct: endogenous in cells; host or cells: HeLa cell extract

[3] = biological target: T3, HeLa cell extract proteins (Homo sapiens, UniProt O75947)
T3 construct: endogenous in cells; host or cells: HeLa cell extract

[4] = biological target: T4, HeLa cell extract proteins (Homo sapiens, UniProt P40616)
T4 construct: endogenous in cells; host or cells: HeLa cell extract
T4 sequence (P40616 1-181): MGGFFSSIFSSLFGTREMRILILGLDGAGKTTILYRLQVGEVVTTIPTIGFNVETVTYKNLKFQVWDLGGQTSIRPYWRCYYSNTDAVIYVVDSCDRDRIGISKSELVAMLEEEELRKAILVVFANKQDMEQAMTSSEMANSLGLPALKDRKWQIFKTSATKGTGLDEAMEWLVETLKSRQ

[5] = biological target: T5, HeLa cell extract proteins (Homo sapiens, UniProt P56381)
T5 construct: endogenous in cells; host or cells: HeLa cell extract
T5 sequence (P56381 1-51): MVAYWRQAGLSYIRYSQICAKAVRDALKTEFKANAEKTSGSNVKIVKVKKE

[6] = biological target: T6, HeLa cell extract proteins (Homo sapiens, UniProt P61019)
T6 construct: endogenous in cells; host or cells: HeLa cell extract

[7] = biological target: T7, HeLa cell extract proteins (Homo sapiens, UniProt P61978)
T7 construct: endogenous in cells; host or cells: HeLa cell extract

[8] = biological target: T8, HeLa cell extract proteins (Homo sapiens, UniProt P63151)
T8 construct: endogenous in cells; host or cells: HeLa cell extract
T8 sequence (P63151 1-447): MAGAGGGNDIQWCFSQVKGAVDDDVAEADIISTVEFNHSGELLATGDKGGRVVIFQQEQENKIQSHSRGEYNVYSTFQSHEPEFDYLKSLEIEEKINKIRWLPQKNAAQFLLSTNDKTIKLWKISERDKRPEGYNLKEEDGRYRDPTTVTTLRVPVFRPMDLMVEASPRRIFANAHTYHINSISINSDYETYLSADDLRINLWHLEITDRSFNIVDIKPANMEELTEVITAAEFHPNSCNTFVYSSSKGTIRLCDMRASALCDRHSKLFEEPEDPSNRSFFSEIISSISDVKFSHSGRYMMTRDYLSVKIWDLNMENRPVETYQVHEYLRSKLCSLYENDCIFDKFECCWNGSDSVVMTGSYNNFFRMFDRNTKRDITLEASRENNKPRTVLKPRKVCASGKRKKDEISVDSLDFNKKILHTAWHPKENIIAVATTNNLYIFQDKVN

[9] = biological target: T9, HeLa cell extract proteins (Homo sapiens, UniProt Q9HB07)
T9 construct: endogenous in cells; host or cells: HeLa cell extract
T9 sequence (Q9HB07 48-376): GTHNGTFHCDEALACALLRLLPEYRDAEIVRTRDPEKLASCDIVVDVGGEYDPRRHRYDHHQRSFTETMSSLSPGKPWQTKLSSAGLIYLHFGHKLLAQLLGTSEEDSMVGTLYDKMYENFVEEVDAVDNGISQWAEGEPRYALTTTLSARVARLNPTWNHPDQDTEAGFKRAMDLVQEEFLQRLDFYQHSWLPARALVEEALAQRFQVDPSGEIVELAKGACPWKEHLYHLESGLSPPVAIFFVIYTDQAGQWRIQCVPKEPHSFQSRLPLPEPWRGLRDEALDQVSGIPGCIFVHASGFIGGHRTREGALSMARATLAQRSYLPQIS

[10] = biological target: T10, HeLa cell extract proteins (Homo sapiens, UniProt Q9P035)
T10 construct: endogenous in cells; host or cells: HeLa cell extract
T10 sequence (Q9P035 1-362): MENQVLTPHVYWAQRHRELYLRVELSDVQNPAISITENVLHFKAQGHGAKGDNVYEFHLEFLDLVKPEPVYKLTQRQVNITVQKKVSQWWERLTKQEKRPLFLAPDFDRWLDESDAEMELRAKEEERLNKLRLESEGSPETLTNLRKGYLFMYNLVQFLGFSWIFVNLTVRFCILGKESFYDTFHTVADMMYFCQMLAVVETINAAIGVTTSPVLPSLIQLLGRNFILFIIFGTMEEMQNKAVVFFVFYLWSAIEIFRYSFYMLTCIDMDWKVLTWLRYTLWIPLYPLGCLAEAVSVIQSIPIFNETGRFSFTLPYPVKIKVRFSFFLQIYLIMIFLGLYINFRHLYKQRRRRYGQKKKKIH

[11] = biological target: T11, HeLa cell extract proteins (Homo sapiens, UniProt Q9UNK9)
T11 construct: endogenous in cells; host or cells: HeLa cell extract
T11 sequence (Q9UNK9 1-670): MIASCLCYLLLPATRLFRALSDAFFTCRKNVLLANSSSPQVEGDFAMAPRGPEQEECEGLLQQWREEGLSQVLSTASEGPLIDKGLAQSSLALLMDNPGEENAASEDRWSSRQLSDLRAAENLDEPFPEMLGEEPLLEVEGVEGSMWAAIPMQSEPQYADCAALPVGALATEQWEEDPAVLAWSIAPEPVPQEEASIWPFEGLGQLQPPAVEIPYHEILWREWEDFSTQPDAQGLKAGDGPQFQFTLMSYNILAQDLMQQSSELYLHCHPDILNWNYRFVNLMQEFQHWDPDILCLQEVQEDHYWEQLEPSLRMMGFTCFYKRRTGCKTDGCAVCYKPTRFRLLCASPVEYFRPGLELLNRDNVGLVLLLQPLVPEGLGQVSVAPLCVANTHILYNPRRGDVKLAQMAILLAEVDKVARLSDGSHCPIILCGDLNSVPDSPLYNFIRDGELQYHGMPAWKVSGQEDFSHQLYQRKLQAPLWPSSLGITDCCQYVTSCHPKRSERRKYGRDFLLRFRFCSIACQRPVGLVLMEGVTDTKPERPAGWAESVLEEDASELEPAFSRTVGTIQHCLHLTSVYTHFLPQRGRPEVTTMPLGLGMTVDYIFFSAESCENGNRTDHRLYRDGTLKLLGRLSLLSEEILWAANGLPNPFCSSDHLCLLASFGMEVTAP

[12] = HeLa, captured protein C12ORF10
[13] = captured protein C12ORF10, HeLa

T3 sequence (O75947 whole entry): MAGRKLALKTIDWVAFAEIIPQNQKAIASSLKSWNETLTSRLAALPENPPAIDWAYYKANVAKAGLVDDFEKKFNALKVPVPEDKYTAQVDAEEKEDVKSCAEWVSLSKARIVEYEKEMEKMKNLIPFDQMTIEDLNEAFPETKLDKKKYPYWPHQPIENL
T2 sequence (O43865 whole entry): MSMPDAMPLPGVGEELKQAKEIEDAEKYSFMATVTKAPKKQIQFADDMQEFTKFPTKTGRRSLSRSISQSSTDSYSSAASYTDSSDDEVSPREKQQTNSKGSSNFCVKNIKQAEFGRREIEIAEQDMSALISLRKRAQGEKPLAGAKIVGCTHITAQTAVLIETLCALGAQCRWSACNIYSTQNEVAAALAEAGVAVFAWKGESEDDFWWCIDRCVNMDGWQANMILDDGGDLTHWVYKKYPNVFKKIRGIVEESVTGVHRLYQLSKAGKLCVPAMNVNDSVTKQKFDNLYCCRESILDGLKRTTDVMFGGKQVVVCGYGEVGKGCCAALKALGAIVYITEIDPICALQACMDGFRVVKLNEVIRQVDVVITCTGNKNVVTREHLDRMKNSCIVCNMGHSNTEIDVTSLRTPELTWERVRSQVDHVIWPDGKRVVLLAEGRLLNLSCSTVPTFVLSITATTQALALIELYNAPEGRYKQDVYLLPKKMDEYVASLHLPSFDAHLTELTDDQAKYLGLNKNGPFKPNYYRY
T1 sequence (O15397 whole entry): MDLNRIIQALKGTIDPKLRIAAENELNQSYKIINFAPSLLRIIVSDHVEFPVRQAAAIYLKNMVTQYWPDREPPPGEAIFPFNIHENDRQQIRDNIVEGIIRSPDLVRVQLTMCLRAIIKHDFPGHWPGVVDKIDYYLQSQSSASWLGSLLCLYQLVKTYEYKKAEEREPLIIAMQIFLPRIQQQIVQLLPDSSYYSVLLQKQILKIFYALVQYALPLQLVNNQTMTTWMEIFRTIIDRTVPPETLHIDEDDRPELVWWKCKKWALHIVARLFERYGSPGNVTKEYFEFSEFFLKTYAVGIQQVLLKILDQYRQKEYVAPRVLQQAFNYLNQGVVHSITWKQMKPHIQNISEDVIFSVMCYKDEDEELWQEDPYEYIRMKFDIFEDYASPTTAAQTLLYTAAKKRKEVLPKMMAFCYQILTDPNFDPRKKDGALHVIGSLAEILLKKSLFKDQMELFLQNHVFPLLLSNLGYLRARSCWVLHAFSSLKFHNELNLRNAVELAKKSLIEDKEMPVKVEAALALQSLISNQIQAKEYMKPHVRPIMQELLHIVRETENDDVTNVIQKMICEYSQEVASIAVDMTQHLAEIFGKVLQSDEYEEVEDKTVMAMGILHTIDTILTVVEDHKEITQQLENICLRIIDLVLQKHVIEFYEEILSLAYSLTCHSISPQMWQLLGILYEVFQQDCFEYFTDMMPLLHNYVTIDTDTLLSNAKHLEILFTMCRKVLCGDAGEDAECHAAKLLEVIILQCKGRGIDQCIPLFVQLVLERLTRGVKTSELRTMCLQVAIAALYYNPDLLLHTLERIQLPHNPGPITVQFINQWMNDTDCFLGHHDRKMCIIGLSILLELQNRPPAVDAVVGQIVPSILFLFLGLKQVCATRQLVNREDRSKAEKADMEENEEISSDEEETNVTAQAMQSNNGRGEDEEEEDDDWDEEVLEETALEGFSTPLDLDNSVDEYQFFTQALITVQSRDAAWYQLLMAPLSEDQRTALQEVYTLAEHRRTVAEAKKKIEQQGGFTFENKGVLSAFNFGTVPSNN
T6 sequence (P61019 whole entry): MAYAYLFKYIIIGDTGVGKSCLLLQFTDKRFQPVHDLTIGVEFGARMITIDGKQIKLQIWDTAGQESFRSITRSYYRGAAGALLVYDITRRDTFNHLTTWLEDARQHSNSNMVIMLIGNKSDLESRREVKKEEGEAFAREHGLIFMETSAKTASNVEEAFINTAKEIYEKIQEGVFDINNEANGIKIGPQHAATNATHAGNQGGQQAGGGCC

Compound	fold changes relative to vehicle control ([1]; protein IPO8, HeLa)	fold changes relative to vehicle control ([2]; HeLa, captured protein AHCYL1)	fold changes relative to vehicle control ([3]; HeLa, captured protein ATP5H)	fold changes relative to vehicle control ([4]; protein ARL1, HeLa)	fold changes relative to vehicle control ([5]; HeLa, captured protein ATP5E)	fold changes relative to vehicle control ([6]; HeLa, protein RAB2A)	fold changes relative to vehicle control ([7]; HeLa, protein HNRNPK)	fold changes relative to vehicle control ([8]; HeLa, captured protein PPP2R2A)	fold changes relative to vehicle control [9, 12]	fold changes relative to vehicle control ([10]; HeLa, protein PTPLAD1)	fold changes relative to vehicle control ([11]; protein ANGEL1, HeLa)	fold changes relative to vehicle control ([1]; captured protein IPO8, HeLa)	fold changes relative to vehicle control ([2]; protein AHCYL1, HeLa)	fold changes relative to vehicle control ([3]; protein ATP5H, HeLa)	fold changes relative to vehicle control ([4]; captured protein ARL1, HeLa)	fold changes relative to vehicle control ([5]; captured protein ATP5E, HeLa)	fold changes relative to vehicle control ([6]; captured protein RAB2A, HeLa)	fold changes relative to vehicle control ([7]; protein HNRNPK, HeLa)	fold changes relative to vehicle control ([8]; protein PPP2R2A, HeLa)	fold changes relative to vehicle control [9, 13]	other results
Nc1nc2c(c(=O)[nH]1)N(C=O)C(CNc1ccc(C(=O)N[C@@H](CCC(=O)O)C(=O)O)cc1)CN2 (some centres unmarked) [LEU, leucovorin]	0.86	1.12	0.91	0.8	1.13	0.85	0.94	0.97	1.08	0.97	0.84	–	–	–	–	–	–	–	–	–	–
NCCCNc1ccc(C(=O)NC(CCC(=O)O)C(=O)O)cc1 (centres unmarked) [compound 7]	0.82	1.03	0.96	1.06	1.37	0.94	0.95	0.87	1.12	1.05	1	–	–	–	–	–	–	–	–	–	–
CCCCCCOc1cccc(Cc2cnc(N)nc2N)c1 [compound 2]	–	–	–	–	–	–	–	–	–	–	–	0.8	1.59	0.88	1.09	0.96	1.09	1.39	1.05	1.06	fold changes relative to vehicle control ([10]; captured protein PTPLAD1, HeLa): 1.02; fold changes relative to vehicle control ([11]; captured protein ANGEL1, HeLa): 0.94
CCCCCCOc1ccc(Cc2cnc(N)nc2N)cc1 [compound 1]	–	–	–	–	–	–	–	–	–	–	–	0.55	1.1	1.11	0.95	0.88	0.64	0.99	0.92	1.05	fold changes relative to vehicle control ([10]; captured protein PTPLAD1, HeLa): 1.06; fold changes relative to vehicle control ([11]; captured protein ANGEL1, HeLa): 1.04
Nc1nc2cccc(-c3ccccc3)c2n1Cc1ccc(Cl)c(Cl)c1 [compound 3]	–	–	–	–	–	–	–	–	–	–	–	0.6	0.94	0.94	1.06	0.92	0.83	1.02	0.99	1.04	fold changes relative to vehicle control ([10]; captured protein PTPLAD1, HeLa): 2.73; fold changes relative to vehicle control ([11]; captured protein ANGEL1, HeLa): 0.95
NCCOCCOCC(=O)Nc1nc2ncc(CNc3ccc(C(=O)NC(CCC(=O)O)C(=O)O)cc3)nc2c(=O)[nH]1 (centres unmarked) [compound 6]	0.91	1.25	0.92	0.9	1.39	1.09	1.13	0.97	0.78	1.04	1.02	–	–	–	–	–	–	–	–	–	–
Nc1nc2[nH]cc(CCc3ccc(C(=O)N[C@@H](CCC(=O)O)C(=O)O)cc3)c2c(=O)[nH]1 [PTX, pemetrexed]	–	–	–	–	–	–	–	–	–	–	–	–	–	–	–	–	–	–	–	–	fold changes relative to vehicle control [1]: 0.83; fold changes relative to vehicle control [2]: 1.08; fold changes relative to vehicle control [3]: 1.03; fold changes relative to vehicle control [4]: 0.77; fold changes relative to vehicle control [5]: 1.34; fold changes relative to vehicle control [6]: 0.93; fold changes relative to vehicle control [7]: 0.96; fold changes relative to vehicle control [8]: 0.97; fold changes relative to vehicle control [9]: 0.33; fold changes relative to vehicle control [10]: 1; fold changes relative to vehicle control [11]: 0.94
